In ChEMBL document CHEMBL3627713, “Triazole linked mono carbonyl curcumin-isatin bifunctional hybrids as novel anti tubulin agents: Design, synthesis, biological evaluation and molecular modeling studies” (Bioorg Med Chem, 2015):

Key:
COLO 205 [1] = experiment: Cytotoxicity against human COLO205 cells assessed as growth inhibition after 48 hrs by sulforhodamine B assay; type: functional, cell-based; conditions: COLO 205, 48 h
[2] = Cytotoxicity against human MIAPaCa2 cells assessed as growth inhibition at 50 uM after 48 hrs by sulforhodamine B assay relative to control; type: functional; conditions: MIA PaCa-2, 48 h, read-out: GI
A549 = experiment: Cytotoxicity against human A549 cells assessed as growth inhibition at 50 uM after 48 hrs by sulforhodamine B assay relative to control; type: functional; conditions: A549, 48 h, read-out: GI
HCT-116 [3] = experiment: Cytotoxicity against human HCT116 cells assessed as growth inhibition at 50 uM after 48 hrs by sulforhodamine B assay relative to control; type: functional; conditions: HCT-116, 48 h, read-out: GI
HCT-116 [4] = experiment: Cytotoxicity against human HCT116 cells assessed as growth inhibition after 48 hrs by sulforhodamine B assay; type: functional, cell-based; conditions: HCT-116, 48 h
THP-1 [5] = experiment: Cytotoxicity against human THP1 cells assessed as growth inhibition after 48 hrs by sulforhodamine B assay; type: functional, cell-based; conditions: THP-1, 48 h
HeLa = experiment: Cytotoxicity against human HeLa cells assessed as growth inhibition at 50 uM after 48 hrs by sulforhodamine B assay relative to control; type: functional; conditions: read-out: GI
COLO 205 [6] = experiment: Cytotoxicity against human COLO205 cells assessed as growth inhibition at 50 uM after 48 hrs by sulforhodamine B assay relative to control; type: functional; conditions: COLO 205, 48 h, read-out: GI
THP-1 [7] = experiment: Cytotoxicity against human THP1 cells assessed as growth inhibition at 50 uM after 48 hrs by sulforhodamine B assay relative to control; type: functional; conditions: THP-1, 48 h, read-out: GI
CAKI-1 = experiment: Cytotoxicity against human Caki1 cells assessed as growth inhibition at 50 uM after 48 hrs by sulforhodamine B assay relative to control; type: functional; conditions: CAKI-1, 48 h, read-out: GI
PC-3 [8] = experiment: Cytotoxicity against human PC3 cells assessed as growth inhibition at 50 uM after 48 hrs by sulforhodamine B assay relative to control; type: functional; conditions: PC-3, 48 h, read-out: GI
PC-3 [9] = experiment: Cytotoxicity against human PC3 cells assessed as growth inhibition after 48 hrs by sulforhodamine B assay; type: functional, cell-based; conditions: PC-3, 48 h
Tubulin = experiment: Inhibition of tubulin (unknown origin) polymerization after 1 hr by ELISA plate reader analysis; type: protein-complex assay, Homo sapiens

| Structure (SMILES) | IC50 (COLO 205 [1]) [µM] | inhibition of growth at 50 µM [2] [%] | inhibition of growth at 50 µM (A549) [%] | inhibition of growth at 50 µM (HCT-116 [3]) [%] | IC50 (HCT-116 [4]) [µM] | IC50 (THP-1 [5]) [µM] | inhibition of growth at 50 µM (HeLa) [%] | inhibition of growth at 50 µM (COLO 205 [6]) [%] | inhibition of growth at 50 µM (THP-1 [7]) [%] | inhibition of growth at 50 µM (CAKI-1) [%] | inhibition of growth at 50 µM (PC-3 [8]) [%] | IC50 (PC-3 [9]) [µM] | IC50 (Tubulin) [µM] |
| --- | --- | --- | --- | --- | --- | --- | --- | --- | --- | --- | --- | --- | --- |
| COc1ccc(/C=C/C(=O)/C=C/c2ccc(OCc3cn(CCN4C(=O)C(=O)c5ccccc54)nn3)c(OC)c2)cc1OC | 5.78 | 21 | 19 | 90 | 2.67 | 4.31 | 18 | 80 | 82 | 22 | 79 | 7.64 | 3.97 |
| COc1ccc(/C=C/C(=O)/C=C/c2ccc(OCc3cn(CCN4C(=O)C(=O)c5cc(Cl)ccc54)nn3)c(OC)c2)cc1OC | 11.5 | 12 | 17 | 79 | 6.94 | 9.33 | 13 | 75 | 77 | 10 | 73 | 13.7 |  |
| COc1cc(/C=C/C(=O)/C=C/c2ccccc2)ccc1OCc1cn(CCN2C(=O)C(=O)c3ccccc32)nn1 | 8.28 | 20 | 10 | 71 | 5.16 | 7.64 | 12 | 64 | 66 | 15 | 60 | 9.56 |  |
| COc1ccc(/C=C/C(=O)/C=C/c2ccc(OCc3cn(CCN4C(=O)C(=O)c5ccccc54)nn3)c(OC)c2)cc1 | 6.72 | 17 | 15 | 81 | 3.45 | 4.96 | 15 | 72 | 75 | 20 | 70 | 8.95 | 5.41 |
| COc1cc(/C=C/C(=O)/C=C/c2cc(OC)c(OC)c(OC)c2)ccc1OCc1cn(CCN2C(=O)C(=O)c3cc(Br)ccc32)nn1 | 5.29 | 15 | 13 | 75 | 2.92 | 3.14 | 15 | 70 | 73 | 12 | 69 | 6.44 |  |
